US5071988A, “Substituted benzoylbenzene-, biphenyl- and 2-oxazole-alkanoic acid derivatives” (American Home Products Corporation, priority 1991, dated 1991)
Like-named read-outs stand apart in the source and are kept apart here.

What was measured:
[1] = tested on: 6-keto-PGF1α /TxB2 (cyclooxygenase pathway); test: in vivo murine zymosan peritonitis assay, 6-keto-PGF1α; parameters: species or system mouse (male CD-1)
Protocol: (§1) The compounds of the invention are evaluated for their ability to inhibit the lipoxygenase and/or cyclooxygenase pathways of arachidonic acid metabolism in the in vivo murine zymosan peritonitis assay.
Male CD-1 mice (8 weeks old) are placed in plastic boxes in groups of six. Animals are injected with 1 mL i.p. of either 1% zymosan in pyrogen free 0.9% saline or saline (unstimulated control). Compounds are dosed orally 1 hour prior to zymosan injection. Twenty minutes after zymosan injection, the mice are asphyxiated by CO2 inhalation and the peritoneal cavity is lavaged with 2 mL ice cold Hanks Balanced Salt Solution (HBSS) without CaCl2, MgSO4. 7H2 O and MgCl2.6H2 O. Peritoneal lavage fluid from each mouse is removed by syringe and placed in 5 mL plastic test tubes put on ice and volume is noted. Preparation of samples for evaluation by ELISA is as follows: Samples are centrifuged at 800 xg for 15 minutes; 1 mL of the supernatant is added to 8 mL ice cold methanol and kept at -70° C. overnight to precipitate protein; and samples are then centrifuged at 800 xg for 15 minutes, followed by a drying procedure in a Savant speed vac concentrator. […]
(§2) The total metabolite level in lavage fluid/mouse is calculated and the significance is determined by a one-way analysis of variance with LSD comparisons to control (p≤0.05). Drug effects are expressed as a percent change from control values.

Fluid Exudation = test: reverse passive Arthus pleurisy assay, fluid exudation; type: in vivo, rat (male Lewis); conditions: Rattus norvegicus, po, 1 hour prior to anti-BSA; standard drugs
Protocol: (§3) The compounds of the invention are further tested in the reverse passive Arthus pleurisy assay to evaluate their effectiveness in inflammatory mediator release and/or the fluid and cellular phases of an inflammatory response.
(§4) A reverse passive Arthus reaction is induced in the pleural cavity of male Lewis rats (150-200 g; fasted overnight prior to use) by the intravenous administration of bovine serum albumin (BSA; 4 mg/0.2 ml) followed by 30 minutes later by the injection of rabbit anti-BSA (1 mg/0.2 ml; lyophilized IgG fraction; Organon Teknika, West Chester, Pa.) into the right pleural space under halothane anesthesia. Drugs or vehicle (0.5% Tween-80) control are administered orally in a volume of 1 ml/100 g body weight at 1 hour prior to the anti-BSA. Animals are sacrificed at either the time of peak eicosanoid production (i.e. 5 minutes after anti-BSA for immunoreactive TxB2 10 minutes for immunoreactive LTB4, 20 minutes for immunoreactive LTC4) or at the time of peak neutrophil infiltration (4 hours after anti-BSA) by CO2 inhalation. The pleural cavity is then exposed, the fluid exudate removed by gentle vacuum aspiration and the volume of exudate is recorded. For the determination of cellular infiltration, the pleural cavity is rinsed with 3 ml of 0.1% EDTA in sterile saline, and the recovered wash is pooled with the exudate. Cell number is determined on a model ZBI Coulter counter. For determination of eicosanoid production, undiluted pleural exudate is microfuged and the supernatant is extracted with ethanol (8-10 times volume). Extracts are either stored at -20° C., or are evaporated to dryness under a stream of N2 and reconstituted in radioimmunoassay (RIA) buffer.
(§5) Inflammatory cells are expressed as 10^6 cells/ml, pleural exudate is expressed as ml of fluid, and the amount of eicosanoids in the pleural cavity is expressed as ng/ml of exudate. Mean±S.E.M. is determined for each group. Percent inhibition (% I) of cell number, exudate volume and eicosanoid production is calculated for vehicle-treated control groups, and the responses in drug-treated rats are then expressed as the mean % I of the control. […] Exp. Ther., 96, 99-113 (1949).

LTB4 = test: reverse passive Arthus pleurisy assay, LTB4; type: in vivo, rat (male Lewis); conditions: Rattus norvegicus, po, 1 hour prior to anti-BSA; standard drugs; read-out: ED50 LTB4
Protocol: as §3, §4
(§6) Eicosanoids are quantitated by RIA according to the procedure specified by the RIA kit manufacturer (Advanced Magnetics, Cambridge, Mass.). Briefly, 100 μl of ^3 H-labeled eicosanoid and 100 μl of specific antibody are sequentially added to 100 μl of extracted pleural exudate in BGG -phosphate buffer which contains 0.01M phosphate, 0.1% bovine gamma globulin and 0.1% sodium azide at pH 7.0. Antibody-bound eicosanoid is separated from unbound eicosanoid by the addition of 750 μl of dextran (0.4%)-coated charcoal (0.4% Norit A) containing 0.1% sodium azide. The mixture is centrifuged at 2000 RPM at 5° C. for 15 minutes to pellet the charcoal and adsorbed unbound eicosanoid. Antibody-bound labeled eicosanoid is quantitated by counting in a liquid scintillation counter, and is correlated to concentration by a standard curve.
as §5

TxB2 = test: reverse passive Arthus pleurisy assay, TxB2; type: in vivo, rat (male Lewis); conditions: Rattus norvegicus, po, 5 min, read-out: ED50 TxB2
Protocol: as §3, §4, §6, §5

Cellular Influx = test: reverse passive Arthus pleurisy assay, cellular influx; type: in vivo, rat (male Lewis); conditions: Rattus norvegicus, po, 4 h, 1 hour prior to anti-BSA; standard drugs
Protocol: as §3, §4, §5

[2] = tested on: LTC4 (lipoxygenase pathway); test: in vivo murine zymosan peritonitis assay, LTC4; parameters: species or system mouse (male CD-1); conditions: for ED50 LTC4: p.o., 1 hour prior to zymosan, standard drugs
Protocol: as §1
Male CD-1 mice (8 weeks old) are placed in plastic boxes in groups of six. Animals are injected with 1 mL i.p. of either 1% zymosan in pyrogen free 0.9% saline or saline (unstimulated control). Compounds are dosed orally 1 hour prior to zymosan injection. Twenty minutes after zymosan injection, the mice are asphyxiated by CO2 inhalation and the peritoneal cavity is lavaged with 2 mL ice cold Hanks Balanced Salt Solution (HBSS) without CaCl2, MgSO4. 7H2 O and MgCl2.6H2 O. Peritoneal lavage fluid from each mouse is removed by syringe and placed in 5 mL plastic test tubes put on ice and volume is noted. Preparation of samples for evaluation by ELISA is as follows: Samples are centrifuged at 800 xg for 15 minutes; 1 mL of the supernatant is added to 8 mL ice cold methanol and kept at -70° C. overnight to precipitate protein; and samples are then centrifuged at 800 xg for 15 minutes, followed by a drying procedure in a Savant speed vac concentrator. The samples are reconstituted with 1 mL ice cold ELISA buffer and stored at -70° C. until assayed. The assay for eicosanoids (LTC4 and 6-keto-PGF1α) is performed according to conventional ELISA procedures.
Compounds to be tested orally are suspended in 0.5% Tween 80. Compounds to be tested intraperitoneally are suspended in 0.5% methylcellulose in 0.9% saline.
as §2

[3] = tested on: LTB4 synthesis by rat glycogen-elicited polymorphonuclear leukocytes (PMN); test: inhibition of LTB4 synthesis by rat glycogen-elicited polymorphonuclear leukocytes (PMN); type: cell-based, rat (female Wistar); conditions: Leukocyte, at 10 μM
Description: This is especially true with respect to 5,12-diHETE, which is also denoted as LTB4 [see Ford-Hitchinson, J. Roy. […] Med., 74, 831 (1981)]. Compounds which inhibit the PLA2 -mediated release of arachidonic acid thereby effectively prevent the oxidation of arachidonic acid to the various leukotriene products via the lipoxygenase cascade. Accordingly, the specificity of action of PLA2 inhibitors can be determined by the activity of test compounds in this assay, which measures the ability of compounds to inhibit the synthesis of LTB4 by rat glycogen-elicited polymorphonuclear leukocytes (PMN) in the presence of exogenous substrate.
The assay is carried out as follows:
Rat polymorphonuclear leukocytes (PMNs) are obtained from female Wistar rats (150-200 g) which receive an injection of 6% glycogen (10 ml i.p.). Rats are sacrificed 18-24 hours post injection by CO2 asphyxiation and the elicited cells are harvested by peritoneal lavage using physiological saline (0.9% NaCl). The exudate is centrifuged at 400 xg for 10 minutes. The supernatant fluid is discarded and the cell pellet is resuspended to a concentration of 2.0×10^7 cells/mL in HBSS containing Ca^++ and Mg^++ and 10 μM L-cysteine.
To 1 mL aliquots of cell suspension, test drugs or vehicle are added, then preincubated at 37° C. for 10 minutes. A23187 (1 μM), [^3 H]-AA (3.0 μCi/mL) and unlabeled AA (1 μM) are then added and the samples are further incubated for 10 minutes. The reaction is terminated by centrifugation and pelleting cells. Supernatants are then analyzed by HPLC analysis on a 15 cm×4.6 mm ID supelcosil LC-18 (Supelco)(3M) column, using a two solvent system at a flow rate of 1.4 mL total flow as follows:
Gradient: (system is equilibrated with Solvent A)
Percent solvent changes are accomplished in a linear fashion.
Injections: 140 μL of each supernatant is injected directly onto column and ^3 H arachidonic acid metabolites are monitored using an on-line radioactivity detector (Ramona, IN/US, Fairfield, N.J.).
Standards: 10^4 -2.0×10^4 dpm of eicosanoids of interest are injected in 90 μL EtOH cocktail.
Results are expressed as percent inhibition at a given compound dose or as an IC50 value.

NC1=NN(c2cccc(C(F)(F)F)c2)CC1 [BW755C]
ED50 ([1]; Mus musculus, po, 20 min, 1 hour prior to zymosan, standard drugs): 22 mg/kg | ED30 (Fluid Exudation): 14 mg/kg | ED50 (LTB4): 23 mg/kg | ED50 (TxB2; p.o., 1 hour prior to anti-BSA, standard drugs): 18 mg/kg | ED30 (Cellular Influx): 28 mg/kg

O=C(O)CCc1nc(-c2ccc(OCc3ccc4ccccc4n3)cc2)c(-c2ccccc2)o1 [Example 5, 5-Phenyl-4-[4-(2-Quinolinylmethoxy)phenyl]-2-oxazole propanoic acid]
% Inhibition LTC4 ([2]; 10 mg/kg i.p.): 86% | inhibition at 10 µM [3]: 96% | % Inhibition 6-keto-PGF ([1]; 10 mg/kg i.p., negative values denote potentiation): -27%

CC(C)Cc1ccc(C(C)C(=O)O)cc1 (centres unmarked) [Ibuprofen]
ED50 LTC4 [2]: Not Active

COc1ccc2c(c1)c(CC(=O)O)c(C)n2C(=O)c1ccc(Cl)cc1 [Indomethacin]
ED50 LTC4 [2]: Not Active | ED50 (TxB2): 0.16 mg/kg
